Test results as given in US10166216B2 (Rigel Pharmaceuticals, Inc., priority 2006, dated 2019).
pIC50: −log10 of the molar value.

Target: Axl (Homo sapiens (Human), UniProt P30530)
Experiment: Phospho-Akt in-cell Western assay (Axl-antibody cross-linking stimulation)
Format: cell-based
Settings: inhibition of Axl activity
Method: The working solution: dilute the stock 1:20 with PBS immediately before use. • 10% SDS: working solution: 5% SDS (sodium dodecylsulfate), diluted in PBS Methods: Day 1:
A 96 well TC (tissue culture treated) plate was coated with 10 μg/mL poly-L-Lysine at 37° C. for 30 min, washed twice with PBS, and air-dried for 5 minutes before cells were added. Hela cells were seeded at 10,000 cells/well and the cells were starved in 100 μL starvation medium containing Axl/Fc for 24 hrs.
The cells were pre-treated with test compounds by adding 100 μL of 2× test compound to the starvation medium on the cells. The cells were incubated at 37° C. for 1 hr before stimulation.
The resulting mix was warmed to 37° C. 50 μL of 5× Axl 1st/2nd of antibody cluster was added to the cells and the cells were incubated at 37° C. for 5 min.
After 5 minutes stimulation, the plate was flicked to remove medium and the plate was tapped onto paper towels. Formaldehyde (4.0% in PBS, 100 μL) was added to fix the cells and the cells were incubated at ambient temperature for 20 min without shaking.
The cells were washed with a plate washer buffer to remove the formaldehyde solution. The plate was flicked to removed excess wash buffer and tapped onto paper towels. Quenching buffer (100 μL) was added to each well and the cells were incubated at ambient temperature for 20 minutes without shaking.
The cells were washed with a plate washer buffer to remove the quenching buffer. Blocking buffer (100 μL) was added and the cells were incubated at ambient temperature for at least an hour with gentle shaking.
The cells were washed with a plate washer buffer and diluted primary antibody (50 μL) was added to each well (blocking buffer was added to the negative control wells instead). The plates were incubated overnight at 4° C. with gentle shaking.
The wash buffer was removed, diluted secondary antibody (100 μL) was added, and the cells were incubated at ambient temperature for 1 hour with gentle shaking. During the incubation, the chemiluminescent reagent was brought to ambient temperature.
The secondary antibody was removed by washing the cells 1× with wash buffer, 1× with PBS by plate washer. The PBS was removed from the plate and the chemiluminescent reagent (80 μL: 40 μL A and 40 μL B) was added to each well at ambient temperature.
The resulting chemiluminescence was read with a Luminomitor within 10 minutes to minimize changes in signal intensity. […] The plate was tapped onto paper towels to remove excess liquid from wells and air-dried at ambient temperature for 5 minutes.
Crystal Violet working solution (60 μL) was added to each well and the cells were incubated at ambient temperature for 30 min. The crystal violet solution was removed, and the wells were rinsed with PBS, then washed 3× with PBS (200 μL) for 5 minutes each.
5% SDS solution (70 μL) was added to each well and the cells were incubated on a shaker for 30 min at ambient temperature.
This relative cell number was then used to normalize each luminescence reading. […]

[1] = Hela cells, phospho-Akt readout, Table 1, formula (Ia1)

Axl, sequence (P30530 26-894): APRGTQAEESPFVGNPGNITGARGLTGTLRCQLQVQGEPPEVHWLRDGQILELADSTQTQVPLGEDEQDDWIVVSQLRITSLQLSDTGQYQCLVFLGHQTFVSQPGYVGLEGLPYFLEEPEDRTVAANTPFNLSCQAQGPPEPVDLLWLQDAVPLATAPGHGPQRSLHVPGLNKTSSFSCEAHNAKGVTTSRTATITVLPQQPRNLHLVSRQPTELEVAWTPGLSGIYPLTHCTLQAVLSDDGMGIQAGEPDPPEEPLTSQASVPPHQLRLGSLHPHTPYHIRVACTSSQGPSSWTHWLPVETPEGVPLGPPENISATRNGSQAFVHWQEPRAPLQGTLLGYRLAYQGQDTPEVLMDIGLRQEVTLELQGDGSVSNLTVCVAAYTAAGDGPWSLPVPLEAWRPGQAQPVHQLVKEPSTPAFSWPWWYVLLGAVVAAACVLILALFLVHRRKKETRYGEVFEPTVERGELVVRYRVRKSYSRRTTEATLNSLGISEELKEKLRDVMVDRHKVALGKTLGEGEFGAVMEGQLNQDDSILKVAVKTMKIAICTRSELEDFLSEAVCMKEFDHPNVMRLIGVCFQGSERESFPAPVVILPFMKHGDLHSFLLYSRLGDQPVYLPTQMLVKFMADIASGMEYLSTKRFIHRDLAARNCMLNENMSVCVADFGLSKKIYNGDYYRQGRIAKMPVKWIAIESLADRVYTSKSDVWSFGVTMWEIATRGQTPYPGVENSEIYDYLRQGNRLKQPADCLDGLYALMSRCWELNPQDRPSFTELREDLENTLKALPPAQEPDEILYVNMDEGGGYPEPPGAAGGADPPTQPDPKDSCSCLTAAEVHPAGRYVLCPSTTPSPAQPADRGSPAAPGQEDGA

Row | pIC50 (phospho-Akt in-cell Western assay) | pIC50 [1] | SMILES
1 | < 4.70 | – | COc1cc2cnc(-n3nc(Nc4ccc(N5CCN([C@H]6C[C@@H]7CC[C@H]6C7)CC5)cc4)nc3N)nc2cc1OC (racemic) [Compound 182, 1-(6,7-dimethoxyquinazolin-2-yl)-N^3-(4-(4-((1S,2S,4R)-bicyclo[2.2.1]heptan-2-yl)-piperazin-1-yl)phenyl)-1H-1,2,4-triazole-3,5-diamine]
2 | – | < 4.70 | Nc1nc(Nc2ccc(OCCN3CCCCC3)cc2)nn1-c1ccccc1 [Compound 1, 1-phneyl-N^3-(4-(2-(piperidin-1-yl)ethoxy)phenyl)-1H-1,2,4-triazole-3,5-diamine]
3 | – | > 6.00 | Nc1nc(Nc2ccc(OCCN3CCCC3)c(Cl)c2)nn1-c1ccccn1 [Compound 4, N^3-(3-chloro-4-(2-(pyrrolidin-1-yl)ethoxy)phenyl)-1-(pyridin-2-yl)-1H-1,2,4-triazole-3,5-diamine]
4 | – | < 4.70 | CNc1nc(Nc2ccc(OCCN3CCCC3)cc2)nn1-c1ccccn1 [Compound 6, N^5-methyl-1-(pyridin-2-yl)-N^3-(4-(2-(pyrrolidin-1-yl)ethoxy)phenyl)-1H-1,2,4-triazole-3,5-diamine]
5 | – | < 4.70 | Nc1nc(Nc2ccc(OCCN3CCCCC3)cc2)nn1-c1ccnc(Cl)c1 [Compound 10, 1-(2-chloropyridin-4-yl)-N^3-(4-(2-(piperidin-1-yl)ethoxy)phenyl)-1H-1,2,4-triazole-3,5-diamine]
6 | – | < 4.70 | Nc1nc(Nc2ccc(OCCN3CCCC3)cc2)nn1-c1nc2ccccc2s1 [Compound 11, 1-(benzo[d]thiazol-2-yl)-N^3-(4-(2-(pyrrolidin-1-yl)ethoxy)phenyl)-1H-1,2,4-triazole-3,5-diamine]
7 | – | < 4.70 | Cn1c(-n2nc(Nc3ccc(OCCN4CCCC4)cc3)nc2N)nc2ccccc21 [Compound 14, 1-(1-methyl-1H-benzo[d]imidazol-2-yl)-N^3-(4-(2-(pyrrolidin-1-yl)ethoxy)phenyl)-1H-1,2,4-triazole-3,5-diamine]
8 | – | 5.00 to 6.00 | Nc1nc(Nc2ccc(OCCN3CCCC3)cc2)nn1-c1cccc(Cl)n1 [Compound 16, 1-(6-chloropyridin-2-yl)-N^3-(4-(2-(pyrrolidin-1-yl)ethoxy)phenyl)-1H-1,2,4-triazole-3,5-diamine]
9 | – | 5.00 to 6.00 | Nc1nc(Nc2ccc(OCCN3CCCC3)cc2)nn1-c1ccc(Cl)cn1 [Compound 17, 1-(5-chloropyridin-2-yl)-N^3-(4-(2-(pyrrolidin-1-yl)ethoxy)phenyl)-1H-1,2,4-triazole-3,5-diamine]
10 | – | > 6.00 | Nc1nc(Nc2ccc(OCCN3CCCCC3)cc2)nn1-c1cccc(Cl)n1 [Compound 19, 1-(6-chloropyridin-2-yl)-N^3-(4-(2-(piperidin-1-yl)ethoxy)phenyl)-1H-1,2,4-triazole-3,5-diamine]
11 | – | < 4.70 | CC1CCCN1CCOc1ccc(Nc2nc(N)n(-c3nc4ccccc4s3)n2)cc1 (stereo not shown) [Compound 22, 1-(benzo[d]thiazol-2-yl)-N^3-(4-(2-(2-methylpyrrolidin-1-yl)ethoxy)phenyl)-1H-1,2,4-triazole-3,5-diamine]
12 | – | < 4.70 | CC1CCCN1CCOc1ccc(Nc2nc(N)n(-c3nc4ccccc4n3C)n2)cc1 (stereo not shown) [Compound 23, 1-(1-methyl-1H-benzo[d]imidazol-2-yl)-N^3-(4-(2-(2-methylpyrrolidin-1-yl)ethoxy)phenyl)-1H-1,2,4-triazole-3,5-diamine]
13 | – | < 4.70 | CC1CCCN1CCOc1ccc(Nc2nc(N)n(-c3nc4ccccc4[nH]3)n2)cc1 (stereo not shown) [Compound 24, 1-(1H-benzo[d]imidazol-2-yl)-N^3-(4-(2-(2-methylpyrrolidin-1-yl)ethoxy)phenyl)-1H-1,2,4-triazole-3,5-diamine]
14 | – | > 6.00 | Nc1nc(Nc2ccc(OCCN3CCCC3)cc2)nn1-c1nncc2ccccc12 [Compound 25, 1-(phthalazin-1-yl)-N^3-(4-(2-(pyrrolidin-1-yl)ethoxy)phenyl)-1H-1,2,4-triazole-3,5-diamine]
15 | – | > 6.00 | Nc1nc(Nc2ccc(OCCN3CCCC3)cc2)nn1-c1cc(C(F)(F)F)ccn1 [Compound 26, N^3-(4-(2-(pyrrolidin-1-yl)ethoxy)phenyl)-1-(4-(trifluoromethyl)pyridin-2-yl)-1H-1,2,4-triazole-3,5-diamine]
16 | – | 5.00 to 6.00 | COc1cccc(-n2nc(Nc3ccc(OCCN4CCCC4)cc3)nc2N)n1 [Compound 30, 1-(6-methoxypyridin-2-yl)-N^3-(4-(2-(pyrrolidin-1-yl)ethoxy)phenyl)-1H-1,2,4-triazole-3,5-diamine]
17 | – | < 4.70 | Nc1nc(Nc2ccc(OCCN3CCCC3)cc2)nn1-c1nc2ccccc2[nH]1 [Compound 31, 1-(1H-benzo[d]imidazol-2-yl)-N^3-(4-(2-(pyrrolidin-1-yl)ethoxy)phenyl)-1H-1,2,4-triazole-3,5-diamine]
18 | – | < 4.70 | Nc1nc(Nc2ccc(OCCN3CCCC3)cc2)nn1-c1ccc(Br)cn1 [Compound 32, 1-(5-bromopyridin-2-yl)-N^3-(4-(2-(pyrrolidin-1-yl)ethoxy)phenyl)-1H-1,2,4-triazole-3,5-diamine]

Continued, molecule first:

Row | SMILES | pIC50 (phospho-Akt in-cell Western assay) | pIC50 [1]
19 | Nc1nc(Nc2ccc(OCCN3CCCC3)cc2)nn1-c1ccc(S(N)(=O)=O)cc1 [Compound 8, 4-(5-amino-3-(4-(2-(pyrrolidin-1-yl)ethoxy)phenylamino)-1H-1,2,4-triazol-1-yl)benzenesulfonamide] | – | < 4.70
20 | Nc1nc(Nc2ccc(OCCN3CCCC3)cc2)nn1-c1cnc2ccccc2n1 [Compound 9, N^3-(4-(2-(pyrrolidin-1-yl)ethoxy)phenyl)-1-(quinoxalin-2-yl)-1H-1,2,4-triazole-3,5-diamine] | – | > 6.00
21 | Nc1nc(Nc2ccc(OCCN3CCCC3)cc2)nn1-c1cnccn1 [Compound 13, 1-(pyrazin-2-yl)-N^3-(4-(2-(pyrrolidin-1-yl)ethoxy)phenyl)-1H-1,2,4-triazole-3,5-diamine] | – | 5.00 to 6.00
22 | Nc1nc(Nc2ccc(OCCN3CCCCC3)cc2)nn1-c1ccnc(N2CCOCC2)c1 [Compound 15, 1-(2-morpholinopyridin-4-yl)-N^3-(4-(2-(piperidin-1-yl)ethoxy)phenyl)-1H-1,2,4-triazole-3,5-diamine] | – | < 4.70
23 | Nc1nc(Nc2ccc(OCCN3CCCC3)cc2)nn1-c1ncccc1Cl [Compound 18, 1-(3-chloropyridin-2-yl)-N^3-(4-(2-(pyrrolidin-1-yl)ethoxy)phenyl)-1H-1,2,4-triazole-3,5-diamine] | – | < 4.70
24 | Nc1nc(Nc2ccc(OCCN3CCCCC3)cc2)nn1-c1cccc(N2CCOCC2)n1 [Compound 20, 1-(6-morpholinopyridin-2-yl)-N^3-(4-(2-(piperidin-1-yl)ethoxy)phenyl)-1H-1,2,4-triazole-3,5-diamine] | – | 4.70 to 5.00
25 | CC1CCCN1CCOc1ccc(Nc2nc(N)n(-c3cnc4ccccc4n3)n2)cc1 (stereo not shown) [Compound 21, N^3-(4-(2-(2-methylpyrrolidin-1-yl)ethoxy)phenyl)-1-(quinoxalin-2-yl)-1H-1,2,4-triazole-3,5-diamine] | – | > 6.00
26 | CC1CCCN1CCOc1ccc(Nc2nc(N)n(-c3ccccc3F)n2)cc1 (stereo not shown) [Compound 27, 1-(2-fluorophenyl)-N^3-(4-(2-(2-methylpyrrolidin-1-yl)ethoxy)phenyl)-1H-1,2,4-triazole-3,5-diamine] | – | < 4.70
27 | Nc1nc(Nc2ccc(OCCN3CCCCC3)cc2)nn1-c1ccccc1F [Compound 28, 1-(2-fluorophenyl)-N^3-(4-(2-(piperidin-1-yl)ethoxy)phenyl)-1H-1,2,4-triazole-3,5-diamine] | – | < 4.70
28 | Nc1nc(Nc2ccc(OCCN3CCCC3)cc2)nn1-c1ncccc1C(F)(F)F [Compound 29, N^3-(4-(2-(pyrrolidin-1-yl)ethoxy)phenyl)-1-(3-(trifluoromethyl)pyridin-2-yl)-1H-1,2,4-triazole-3,5-diamine] | – | 5.00 to 6.00
29 | COC(=O)C1CCCN1CCOc1ccc(Nc2nc(N)n(-c3cnc4ccccc4n3)n2)cc1 (stereo not shown) [Compound 33, methyl 1-(2-(4-(5-amino-1-(quinoxalin-2-yl)-1H-1,2,4-triazol-3-ylamino)phenoxy)ethyl)-pyrrolidine-2-carboxylate] | – | 5.00 to 6.00
30 | Nc1nc(Nc2ccc(OCCN3CCCC3)cc2)nn1-c1ccccc1F [Compound 34, 1-(2-fluorophenyl)-N^3-(4-(2-(pyrrolidin-1-yl)ethoxy)phenyl)-1H-1,2,4-triazole-3,5-diamine] | – | < 4.70
31 | CNc1cccc(-n2nc(Nc3ccc(OCCN4CCCCC4)cc3)nc2N)n1 [Compound 35, 1-(6-(methylamino)pyridin-2-yl)-N^3-(4-(2-(piperidin-1-yl)ethoxy)phenyl)-1H-1,2,4-triazole-3,5-diamine] | – | 5.00 to 6.00
